# Experimental data as given in US20220017572A1, “GEMINOID LIPOPEPTIDE COMPOUNDS AND THEIR USES” (Erasmus University Medical Center Rotterdam, priority 2016, published 2022).
# Residues, ends and D or L forms follow the SMILES beside them.
# Columns and labels:
# trypsin = target: T1, trypsin (Bos taurus, UniProt P00760); assay: Trypsin inhibition, fluorimetric enzyme assay; format: biochemical
# T1 construct: gene PRSS1
# T1 sequence (P00760 24-246): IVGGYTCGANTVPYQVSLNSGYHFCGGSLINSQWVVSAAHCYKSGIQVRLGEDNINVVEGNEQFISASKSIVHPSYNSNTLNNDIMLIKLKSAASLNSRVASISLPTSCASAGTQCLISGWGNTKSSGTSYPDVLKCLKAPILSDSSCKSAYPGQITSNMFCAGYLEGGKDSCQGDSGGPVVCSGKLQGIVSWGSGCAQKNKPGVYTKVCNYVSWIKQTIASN
# Procedure: (§1) The enzyme was dissolved in 1 mL MES buffer (10 mM), 1 mM CaCl2, pH 7.0 at 36.5° C. Substrate was added in a concentration 10 times the Km, and the inhibitor compounds of type C (C16-KGnK-C16, C16-KAnK-C16, and C16-RAnR-C16) were added in increasing concentrations (1.0, 5.0, 10.0, 20.0, 40.0 μL) from a stock solution of 2 mg in 1 mL DMSO. The residual activity was measured in a Hitachi F2500 spectrofluorimeter, and plots were fitted using the Grafit® software (Erithracus Software, Horley, Surrey, UK). All the assays were calculated by the Morrison equation for competitive inhibition (eq. 1, [Morrison, 1969]). The amount of substrate used for the tight binding titration experiments follow all the requirements, where [S]<<Km for all enzymes, so the Kiapp=Ki.
# (§2) The first group of gemini-like peptide amphiphiles to be screened was that of C16-K(G or A)nK-C16 (compound type C, with R1=n-C15H31, R2=n-C16H33). […] The results of the Ki determination for trypsin, dengue 2 protease, and human furin are given in Table 1A; some general data for the inhibition by this type of compounds are given in Table 1B. For most compounds in Table 1 the Ki could be derived from competitive inhibition experiments. Judging from the Ki values with the relatively simple substrate Z-RR-MCA, the best inhibitors for dengue 2 protease contain alanine (A) rather than glycine (G).
# dengue 2 protease [1] = target: T2, dengue 2 protease (Dengue virus type 2, UniProt P14340); assay: Dengue 2 protease inhibition, hydrolysis of Z-RR-MCA; format: biochemical, dengue 2 virus; set-up: Activity with inhibitors: unit not given here; conditions: for activity at 5 µM: 5 μM inhibitor; for activity at 10 µM: 10 μM inhibitor; for activity at 15 µM: 15 μM inhibitor; for activity at 40 µM: 40 μM inhibitor
# T2 construct: The active site of the dengue protease is in the N-terminal part of NS3
# human furin = human furin (Homo sapiens, UniProt P09958); assay: Human furin inhibition, hydrolysis of Ac-RVRR-MCA; format: biochemical; conditions: for activity at 5 µM: 5 μM inhibitor; for activity at 10 µM: 10 μM inhibitor; for activity at 15 µM: 15 μM inhibitor; for activity at 40 µM: 40 μM inhibitor
# Procedure: as §1
# However, for furin we used a correction of Ki app, where [S]˜Km (eq. 2).
# Range of Proteases Inhibited by Geminoids, Determination of Ki with Z-RR-MCA (Dengue 2 Protease) and Ac-RVRR-MCA (Furin) (SEQ ID NO:60).
# thrombin = thrombin (Homo sapiens, UniProt P00734); assay: Thrombin inhibition, fluorimetric enzyme assay; format: biochemical; conditions: 36.5° C., read-out: Residual Activity (%) Thrombin
# Procedure: as §1, with “Kiapp=Ki. […]” for “Kiapp=Ki.”
# plasmin = plasmin (Homo sapiens, UniProt P00747); assay: Plasmin inhibition, fluorimetric enzyme assay; format: biochemical; conditions: 36.5° C., read-out: Residual Activity (%) Plasmin
# Procedure: as §1, §2
# dengue 2 protease [2] = target: T2, dengue 2 protease; assay: Dengue 2 protease inhibition in presence of Triton X-100 (detergent test, Nature Protocol); format: biochemical, dengue 2 virus; conditions: 0.05% Triton X-100; for Activity with 0.05% Triton: initial activity in UAF/min
# Source text: A further investigation of the interactions of the geminoid inhibitors with biological membranes and with membrane-bound proteases is needed. […] The preparation and tests of peptides symmetrically, asymmetrically and singly alkylated with saturated, short (C6), and unsaturated (C18:1) alkyl tails are in progress.
# DENV2 protease replicon = DENV2 protease replicon assay; format: cell-based; conditions: lowest concentration with observed activity in replicon assay
# DENV2 protease = target: T3, DENV2 protease (Dengue virus type 2, UniProt P14340); assay: DENV2 protease biochemical assay; conditions: 50 μM inhibitor
# T3 construct: The active site of the dengue protease is in the N-terminal part of NS3
# T3 sequence (P14340 1476-1653): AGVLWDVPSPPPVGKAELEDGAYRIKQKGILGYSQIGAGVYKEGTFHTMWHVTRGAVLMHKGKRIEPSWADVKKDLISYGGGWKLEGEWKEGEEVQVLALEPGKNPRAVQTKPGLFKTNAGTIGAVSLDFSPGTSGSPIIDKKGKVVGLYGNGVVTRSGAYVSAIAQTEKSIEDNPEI
# T3 sequence (P14340 1398-1437): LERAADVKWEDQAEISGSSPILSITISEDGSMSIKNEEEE
# Chain of plasmin (P00747 581-810 limits assumed, species assumed): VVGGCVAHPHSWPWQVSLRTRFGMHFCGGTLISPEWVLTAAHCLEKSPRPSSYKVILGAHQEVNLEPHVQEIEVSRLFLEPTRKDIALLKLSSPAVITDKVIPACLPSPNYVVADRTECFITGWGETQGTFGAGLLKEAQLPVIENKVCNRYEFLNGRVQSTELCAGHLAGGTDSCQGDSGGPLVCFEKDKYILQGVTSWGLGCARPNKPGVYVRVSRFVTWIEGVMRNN
# Chain of plasmin (P00747 97-580 partner limits assumed, species assumed): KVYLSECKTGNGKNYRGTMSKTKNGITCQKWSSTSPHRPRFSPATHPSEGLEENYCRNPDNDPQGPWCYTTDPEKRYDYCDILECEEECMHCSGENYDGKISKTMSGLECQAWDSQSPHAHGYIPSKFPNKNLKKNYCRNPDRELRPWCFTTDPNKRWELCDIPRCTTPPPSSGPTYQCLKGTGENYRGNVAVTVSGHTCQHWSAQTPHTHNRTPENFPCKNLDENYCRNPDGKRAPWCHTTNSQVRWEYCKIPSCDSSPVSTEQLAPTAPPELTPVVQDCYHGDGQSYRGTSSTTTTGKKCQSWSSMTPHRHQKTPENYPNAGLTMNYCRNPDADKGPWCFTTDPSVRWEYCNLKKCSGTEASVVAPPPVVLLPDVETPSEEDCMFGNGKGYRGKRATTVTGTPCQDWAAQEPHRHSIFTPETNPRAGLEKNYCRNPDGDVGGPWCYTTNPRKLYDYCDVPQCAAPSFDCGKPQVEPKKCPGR
# Chain of human furin (P09958 108-794): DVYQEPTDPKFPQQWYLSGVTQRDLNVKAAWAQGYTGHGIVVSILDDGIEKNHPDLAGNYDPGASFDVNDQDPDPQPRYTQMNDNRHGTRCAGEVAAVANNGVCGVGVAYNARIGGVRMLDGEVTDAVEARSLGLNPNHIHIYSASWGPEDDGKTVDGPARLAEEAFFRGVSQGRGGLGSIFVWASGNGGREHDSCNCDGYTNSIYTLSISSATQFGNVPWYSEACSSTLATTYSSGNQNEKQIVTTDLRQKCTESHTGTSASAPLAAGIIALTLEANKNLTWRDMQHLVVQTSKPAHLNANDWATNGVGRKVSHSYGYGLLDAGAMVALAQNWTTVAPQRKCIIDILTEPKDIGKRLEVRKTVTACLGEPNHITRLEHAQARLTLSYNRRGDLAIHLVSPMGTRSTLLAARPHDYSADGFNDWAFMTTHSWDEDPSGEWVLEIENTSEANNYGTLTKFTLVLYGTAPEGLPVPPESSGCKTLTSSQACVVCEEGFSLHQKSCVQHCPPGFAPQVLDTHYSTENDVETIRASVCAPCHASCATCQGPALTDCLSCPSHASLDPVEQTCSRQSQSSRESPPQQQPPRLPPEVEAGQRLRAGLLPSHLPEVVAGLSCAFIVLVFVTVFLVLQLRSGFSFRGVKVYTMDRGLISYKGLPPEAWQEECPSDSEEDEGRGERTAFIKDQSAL
# T2 sequence (P14340 1476-1653): as the sequence (P14340 1476-1653) above
smiles,measurement,setting,value
CCCCCCCCCCCCCCCCNC(=O)[C@H](CCCCN)NC(=O)[C@H](C)NC(=O)[C@H](CCCCN)NC(=O)CCCCCCCCCCCCCCC [C16-KAK-C16],Ki,trypsin,15.2 µM
same,remaining activity at 15 µM,"trypsin; 15 μM inhibitor, 36.5° C., read-out: Residual Activity (%) Trypsin",68%
same,remaining activity at 40 µM,"trypsin; 40 μM inhibitor, 36.5° C., read-out: Residual Activity (%) Trypsin",35%
same,remaining activity at 80 µM,"trypsin; 80 μM inhibitor, 36.5° C., read-out: Residual Activity (%) Trypsin",21%
same,Ki,dengue 2 protease [1],0.37 µM
same,activity at 2.5 µM,"dengue 2 protease [1]; 2.5 μM inhibitor, 36.5° C.",87%
same,activity at 5 µM,dengue 2 protease [1]; 36.5° C.,66%
same,activity at 10 µM,dengue 2 protease [1]; 36.5° C.,26%
same,activity at 15 µM,dengue 2 protease [1]; 36.5° C.,15%
same,activity at 40 µM,dengue 2 protease [1]; 36.5° C.,6%
same,activity at 2.5 µM,"human furin; 2.5 μM inhibitor, 36.5° C.",43%
same,activity at 5 µM,human furin; 36.5° C.,30%
same,activity at 10 µM,human furin; 36.5° C.,10%
same,activity at 15 µM,human furin; 36.5° C.,0%
same,activity at 40 µM,human furin; 36.5° C.,0%
same,Ki,"human furin; 10 mM Mes.NaOH, pH 7.0, 2.35 μM Ac-RVRR-MCA, 37° C., read-out: Ki hFurin",0.54 µM
same,remaining activity at 15 µM,thrombin; 15 μM inhibitor,80%
same,remaining activity at 40 µM,thrombin; 40 μM inhibitor,64%
same,remaining activity at 80 µM,thrombin; 80 μM inhibitor,42%
same,remaining activity at 15 µM,plasmin; 15 μM inhibitor,62%
same,remaining activity at 40 µM,plasmin; 40 μM inhibitor,20%
same,remaining activity at 80 µM,plasmin; 80 μM inhibitor,3%
same,% recovery in presence of Triton,dengue 2 protease [2]; 30 μM of inhibitor,41%
same,Activity with 0.05% Triton,dengue 2 protease [2]; 30 μM of inhibitor,91
same,Replicon activity [μM] (1),DENV2 protease replicon,0.3 µM
same,inhibition at 50 µM,DENV2 protease,106%
"CCCCCCCCCCCCCCCCNC(=O)[C@H](CCCCN)NC(=O)CNC(=O)CNC(=O)[C@H](CCCCN)NC(=O)CCCCCCCCCCCCCCC [C16-KGGK-C16, C15H31CO-KGGK-NH—C16H33] (HELM PEPTIDE1{[CCCCCCCCCCCCCCCC(=O)[*:2]].K.G.G.K.[CCCCCCCCCCCCCCCCN[*:1]]}$$$$V2.0)",remaining activity at 18 µM,"trypsin; 18 μM inhibitor, 36.5° C., read-out: Residual Activity (%) Trypsin",79%
same,remaining activity at 55 µM,"trypsin; 55 μM inhibitor, 36.5° C., read-out: Residual Activity (%) Trypsin",45%
same,remaining activity at 85 µM,"trypsin; 85 μM inhibitor, 36.5° C., read-out: Residual Activity (%) Trypsin",24%
same,Ki,dengue 2 protease [1],5.75 µM
same,activity at 5 µM,dengue 2 protease [1]; 36.5° C.,88%
same,activity at 10 µM,dengue 2 protease [1]; 36.5° C.,84%
same,Activity with inhibitors,"dengue 2 protease [1]; 10 μM of inhibitor, 10 μM Z-RR-MCA, pH 9.0, 37° C., initial activity in UAF/min",10
same,activity at 15 µM,dengue 2 protease [1]; 36.5° C.,76%
same,activity at 20 µM,"dengue 2 protease [1]; 20 μM inhibitor, 36.5° C.",70%
same,activity at 40 µM,dengue 2 protease [1]; 36.5° C.,64%
same,activity at 5 µM,human furin; 36.5° C.,94%
same,activity at 10 µM,human furin; 36.5° C.,85%
same,activity at 15 µM,human furin; 36.5° C.,76%
same,activity at 20 µM,"human furin; 20 μM inhibitor, 36.5° C.",67%
same,activity at 40 µM,human furin; 36.5° C.,3%
same,remaining activity at 18 µM,thrombin; 18 μM inhibitor,78%
same,remaining activity at 55 µM,thrombin; 55 μM inhibitor,46%
same,remaining activity at 85 µM,thrombin; 85 μM inhibitor,33%
same,remaining activity at 18 µM,plasmin; 18 μM inhibitor,30%
same,remaining activity at 55 µM,plasmin; 55 μM inhibitor,11%
same,remaining activity at 85 µM,plasmin; 85 μM inhibitor,4%
same,% recovery in presence of Triton,dengue 2 protease [2]; 10 μM of inhibitor,73%
same,Activity with 0.05% Triton,dengue 2 protease [2]; 10 μM of inhibitor,160
same,Replicon activity [μM] (1),DENV2 protease replicon,0.3 µM
same,inhibition at 50 µM,DENV2 protease,104%
